Results reported in patent US10526314B2, “Hydroxyalkyl-substituted heteroaryltriazole derivatives and uses thereof” (BAYER AKTIENGESELLSCHAFT, priority 2016, dated 2020).

Columns and labels:
[1] = target: T1, human V1a receptor (Homo sapiens, UniProt P37288); test: Cellular in vitro assay for determining vasopressin receptor activity (V1a, aequorin luminescence); assay type: cell-based; settings: for IC50: CHO cell line transfected with human V1a receptor, [Arg8]-vasopressin at EC50 concentration, read-out: IC50 hV1a; for ratio IC50 hV2/hV1a: selectivity ratio IC50 hV2 / IC50 hV1a
T1 construct: expressed in transfected cells; host or cells: CHO K1 (ATCC), also stably transfected with a modified aequorin
Method: (§1) B-1. Cellular In Vitro Assay for Determining Vasopressin Receptor Activity
(§2) The identification of agonists and antagonists of the V1a and V2 vasopressin receptors from humans, rats and dogs as well as the quantification of the activity of the compounds of the invention is carried out using recombinant cell lines. These cell lines originally derive from a hamster's ovary epithelial cell (Chinese Hamster Ovary, CHO K1, ATCC: American Type Culture Collection, Manassas, Va. 20108, USA). The test cell lines constitutively express the human, rat or dog V1a or V2 receptors. In case of the Gαq-coupled V1a receptors, cells are also stably transfected with a modified form of the calcium-sensitive photoproteins aequorin (human and rat V1a) or obelin (dog V1a), which, after reconstitution with the cofactor coelenterazine, emit light when there are increases in free calcium concentrations [Rizzuto R, Simpson A W, Brini M, Pozzan T, Nature 358, 325-327 (1992); Illarionov B A, Bondar V S, Illarionova V A, Vysotski E S, Gene 153 (2), 273-274 (1995)]. The resulting vasopressin receptor cells react to stimulation of the recombinantly expressed V1a receptors by intracellular release of calcium ions, which can be quantified by the resulting photoprotein luminescence. The Gs-coupled V2 receptors are stably transfected into cell lines expressing the gene for firefly luciferase under control of a CRE-responsible promoter. Activation of V2 receptors induces the activation of the CRE-responsive promoter via cAMP increase, thereby inducing the expression of firefly luciferase. The light emitted by photoproteins of V1a cell lines as well as the light emitted by firefly luciferase of V2 cell lines corresponds to the activation or inhibition of the respective vasopressin receptor. The bioluminescence of the cell lines is detected using a suitable luminometer [Milligan G, Marshall F, Rees S, Trends in Pharmacological Sciences 17, 235-237 (1996)].
Vasopressin V1a Receptor Cell Lines:
On the day before the assay, the cells are plated out in culture medium (DMEM/F12, 2% FCS, 2 mM glutamine, 10 mM HEPES, 5 μg/ml coelenterazine) in 384-well microtiter plates and kept in a cell incubator (96% humidity, 5% v/v CO2, 37° C.). On the day of the assay, test compounds in various concentrations are placed for 10 minutes in the wells of the microtiter plate before the agonist [Arg^8]-vasopressin at EC50 concentration is added. The resulting light signal is measured immediately in a luminometer.
(§3) Table 1A below lists individual IC50 values for the compounds of the invention (including racemic mixtures as well as separated enantiomers) that were obtained from cell lines transfected with the human V1a or V2 receptor: […]

[2] = target: T2, human V2 receptor (Homo sapiens, UniProt P30518); test: Cellular in vitro assay for determining vasopressin receptor activity (V2, CRE-luciferase); assay type: cell-based; settings: CHO cell line transfected with human V2 receptor; [Arg8]-vasopressin at EC50 concentration; read-out: IC50 hV2
T2 construct: expressed in transfected cells; host or cells: CHO K1 (ATCC) expressing firefly luciferase under a CRE-responsive promoter
Method: as §1, §2
Vasopressin V2 Receptor Cell Lines:
On the day before the assay, the cells are plated out in culture medium (DMEM/F12, 2% FCS, 2 mM glutamine, 10 mM HEPES) in 384-well microtiter plates and kept in a cell incubator (96% humidity, 5% v/v CO2, 37° C.). On the day of the assay, test compounds in various concentrations and the agonist [Arg^8]-vasopressin at EC50 concentration are added together to the wells, and plates are incubated for 3 hours in a cell incubator. Upon addition of the cell lysis reagent Triton™ and the substrate luciferin, luminescence of firefly luciferase is measured in a luminometer.
as §3

T1 sequence (P37288 whole entry): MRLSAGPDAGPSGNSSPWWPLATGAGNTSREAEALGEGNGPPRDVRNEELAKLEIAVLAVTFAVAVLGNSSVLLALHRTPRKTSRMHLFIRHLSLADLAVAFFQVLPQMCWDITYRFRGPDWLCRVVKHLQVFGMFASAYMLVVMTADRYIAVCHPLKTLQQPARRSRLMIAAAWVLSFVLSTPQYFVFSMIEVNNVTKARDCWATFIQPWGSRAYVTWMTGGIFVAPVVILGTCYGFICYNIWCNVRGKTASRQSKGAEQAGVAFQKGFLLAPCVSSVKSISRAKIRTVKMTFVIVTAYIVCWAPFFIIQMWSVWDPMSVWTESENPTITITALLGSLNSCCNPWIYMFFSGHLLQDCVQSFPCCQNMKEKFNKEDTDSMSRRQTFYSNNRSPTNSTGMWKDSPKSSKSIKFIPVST
T2 sequence (P30518 whole entry): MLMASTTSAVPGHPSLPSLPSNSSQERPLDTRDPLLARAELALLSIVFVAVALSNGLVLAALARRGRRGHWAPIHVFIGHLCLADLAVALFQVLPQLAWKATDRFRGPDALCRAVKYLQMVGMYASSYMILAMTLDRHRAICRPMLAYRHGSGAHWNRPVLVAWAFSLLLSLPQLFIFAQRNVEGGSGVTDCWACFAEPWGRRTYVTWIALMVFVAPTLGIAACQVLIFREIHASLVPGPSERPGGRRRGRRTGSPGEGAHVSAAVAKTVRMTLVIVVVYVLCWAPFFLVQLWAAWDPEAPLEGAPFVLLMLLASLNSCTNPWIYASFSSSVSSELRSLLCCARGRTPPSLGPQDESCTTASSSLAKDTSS

IC50 [1] [nM]	ratio IC50 hV2/hV1a [1]	IC50 [2] [nM]	SMILES
6.05	6.4	38.7	C[C@@H](O)c1nc(Cn2nc(-c3ccc(Cl)cc3)n(C[C@H](O)C(F)(F)F)c2=O)nn1-c1ncccc1F [Example 13, 5-(4-Chlorophenyl)-2-({1-(3-fluoropyridin-2-yl)-5-[(1R)-1-hydroxyethyl]-1H-1,2,4-triazol-3-yl}methyl)-4-[(2S)-3,3,3-trifluoro-2-hydroxypropyl]-2,4-dihydro-3H-1,2,4-triazol-3-one]
6.45	10.2	65.5	C[C@H](O)c1nc(Cn2nc(-c3ccc(Cl)cc3)n(C[C@H](O)C(F)(F)F)c2=O)nn1-c1ccccn1 [Example 14, 5-(4-Chlorophenyl)-2-({5-[(1S)-1-hydroxyethyl]-1-(pyridin-2-yl)-1H-1,2,4-triazol-3-yl}methyl)-4-[(2S)-3,3,3-trifluoro-2-hydroxypropyl]-2,4-dihydro-3H-1,2,4-triazol-3-one]
8.25	1.4	11.7	C[C@H](O)c1nc(Cn2nc(-c3ccc(Cl)cc3)n(C[C@H](O)C(F)(F)F)c2=O)nn1-c1ccc(Cl)cn1 [Example 15, 5-(4-Chlorophenyl)-2-({1-(5-chloropyridin-2-yl)-5-[(1S)-1-hydroxyethyl]-1H-1,2,4-triazol-3-yl}methyl)-4-[(2S)-3,3,3-trifluoro-2-hydroxypropyl]-2,4-dihydro-3H-1,2,4-triazol-3-one]
14.5	2.7	39.5	C[C@H](O)c1nc(Cn2nc(-c3ccc(Cl)cc3)n(C[C@H](O)C(F)(F)F)c2=O)nn1-c1cccc(F)n1 [Example 17, 5-(4-Chlorophenyl)-2-({1-(6-fluoropyridin-2-yl)-5-[(1S)-1-hydroxyethyl]-1H-1,2,4-triazol-3-yl}methyl)-4-[(2S)-3,3,3-trifluoro-2-hydroxypropyl]-2,4-dihydro-3H-1,2,4-triazol-3-one]
29.5	10.8	320	C[C@H](O)c1nc(Cn2nc(-c3ccc(Cl)cc3)n(C[C@H](O)C(F)(F)F)c2=O)nn1-c1cnccn1 [Example 19, 5-(4-Chlorophenyl)-2-({5-[(1S)-1-hydroxyethyl]-1-(pyrazin-2-yl)-1H-1,2,4-triazol-3-yl}methyl)-4-[(2S)-3,3,3-trifluoro-2-hydroxypropyl]-2,4-dihydro-3H-1,2,4-triazol-3-one]
47.6	4.9	235	C[C@H](O)c1nc(Cn2nc(-c3ccc(Cl)cc3)n(C[C@H](O)C(F)(F)F)c2=O)nn1-c1cccnn1 [Example 20, 5-(4-Chlorophenyl)-2-({5-[(1S)-1-hydroxyethyl]-1-(pyridazin-3-yl)-1H-1,2,4-triazol-3-yl}methyl)-4-[(25)-3,3,3-trifluoro-2-hydroxypropyl]-2,4-dihydro-3H-1,2,4-triazol-3-one]
86.5	1.2	103	C[C@@H](O)c1nc(Cn2nc(-c3ccc(Cl)cc3)n(C[C@H](O)C(F)(F)F)c2=O)nn1-c1ccccn1 [Example 23, 5-(4-Chlorophenyl)-2-({5-[(1R)-1-hydroxyethyl]-1-(pyridin-2-yl)-1H-1,2,4-triazol-3-yl}methyl)-4-[(2S)-3,3,3-trifluoro-2-hydroxypropyl]-2,4-dihydro-3H-1,2,4-triazol-3-one]

The remaining lines, values behind:

SMILES	IC50 [1] [nM]	ratio IC50 hV2/hV1a [1]	IC50 [2] [nM]
C[C@H](O)c1nc(Cn2nc(-c3ccc(Cl)cc3)n(C[C@H](O)C(F)(F)F)c2=O)nn1-c1ncccc1OC(F)(F)F [Example 12, 5-(4-Chlorophenyl)-2-({5-[(1S)-1-hydroxyethyl]-1-[3-(trifluoromethoxy)pyridin-2-yl]-1H-1,2,4-triazol-3-yl}methyl)-4-[(2S)-3,3,3-trifluoro-2-hydroxypropyl]-2,4-dihydro-3H-1,2,4-triazol-3-one]	5.7	11.3	64.7
C[C@@H](O)c1nc(Cn2nc(-c3ccc(Cl)cc3)n(C[C@H](O)C(F)(F)F)c2=O)nn1-c1ncccc1OC(F)(F)F [Example 16, 5-(4-Chlorophenyl)-2-({5[(1R)-1hydroxyethyl]-1-[3-(trifluoromethoxy)pyridin-2-yl]-1H-1,2,4-triazol-3yl}methyl)-4-[(2S)-3,3,3-trifluoro-2-hydroxypropyl]-2,4-dihydro-3H-1,2,4-triazol-3-one]	13	29.7	387
C[C@H](O)c1nc(Cn2nc(-c3ccc(Cl)cc3)n(C[C@H](O)C(F)(F)F)c2=O)nn1-c1ccncc1 [Example 18, 5-(4-Chlorophenyl)-2-({5-[(1S)-1-hydroxyethyl]-1-(pyridin-4-yl)-1H-1,2,4-triazol-3-yl}methyl)-4-[(2S)-3,3,3-trifluoro-2-hydroxypropyl]-2,4-dihydro-3H-1,2,4-triazol-3-one]	28.6	7.0	199
COc1nccnc1-n1nc(Cn2nc(-c3ccc(Cl)cc3)n(C[C@H](O)C(F)(F)F)c2=O)nc1[C@H](C)O [Example 21, 5-(4-Chlorophenyl)-2-({5-[(1S)-1-hydroxyethyl]-1-(3-methoxypyrazin-2-yl)-1H-1,2,4-triazol-3-yl}methyl)-4-[(2S)-3,3,3-trifluoro-2-hydroxypropyl]-2,4-dihydro-3H-1,2,4-triazol-3-one]	49	0.9	46
C[C@H](O)c1nc(Cn2nc(-c3ccc(Cl)cc3)n(C[C@H](O)C(F)(F)F)c2=O)nn1-c1nccn1C [Example 22, 5-(4-Chlorophenyl)-2-({5-[(1S)-1-hydroxyethyl]-1-(1-methyl-1H-imidazol-2-yl)-1H-1,2,4-triazol-3-yl}methyl)-4-[(2S)-3,3,3-trifluoro-2-hydroxypropyl]-2,4-dihydro-3H-1,2,4-triazol-3-one]	68.1	2.0	138
C[C@H](O)c1nc(Cn2nc(-c3ccc(Cl)cc3)n(C[C@H](O)C(F)(F)F)c2=O)nn1-c1ncccc1C(F)(F)F [Example 30, 5-(4-chlorophenyl)-2-({5-[(1S)-1-hydroxyethyl]-1-[3-(trifluoromethyl)pyridin-2-yl]-1H-1,2,4-triazol-3-yl}methyl)-4-[(2S)-3,3,3-trifluoro-2-hydroxypropyl]-2,4-dihydro-3H-1,2,4-triazol-3-one]	3.3	14.9	48.5
C[C@@H](O)c1nc(Cn2nc(-c3ccc(Cl)cc3)n(C[C@H](O)C(F)(F)F)c2=O)nn1-c1ncccc1C(F)(F)F [Example 31, 5-(4-chlorophenyl)-2-({5-[(1R)-1-hydroxyethyl]-1-[3-(trifluoromethyl)pyridin-2-yl]-1H-1,2,4-triazol-3yl}methyl)-4-[(2S)-3,3,3-trifluoro-2-hydroxypropyl]-2,4-dihydro-3H-1,2,4-triazol-3-one]	4.9	35.1	170
